Measured values reported in patent US8946439B2, “Amide compounds, compositions and uses thereof” (Evotec AG, priority 2008, dated 2015).
Where two headings read alike, the source gives them in different places.

Assays:
hP2X2/3H = target: T1, hP2X2/3H (Homo sapiens, UniProt P56373+Q9UBL9); experiment: Calcium uptake assay (P2X antagonist assay), P2X2/3 heteromer; format: cell-based; settings: hP2X2/3H
T1 construct: expressed in transfected cells; host or cells: e.g. HEK293 or 1321N1
T1 sequence (Q9UBL9 1-471): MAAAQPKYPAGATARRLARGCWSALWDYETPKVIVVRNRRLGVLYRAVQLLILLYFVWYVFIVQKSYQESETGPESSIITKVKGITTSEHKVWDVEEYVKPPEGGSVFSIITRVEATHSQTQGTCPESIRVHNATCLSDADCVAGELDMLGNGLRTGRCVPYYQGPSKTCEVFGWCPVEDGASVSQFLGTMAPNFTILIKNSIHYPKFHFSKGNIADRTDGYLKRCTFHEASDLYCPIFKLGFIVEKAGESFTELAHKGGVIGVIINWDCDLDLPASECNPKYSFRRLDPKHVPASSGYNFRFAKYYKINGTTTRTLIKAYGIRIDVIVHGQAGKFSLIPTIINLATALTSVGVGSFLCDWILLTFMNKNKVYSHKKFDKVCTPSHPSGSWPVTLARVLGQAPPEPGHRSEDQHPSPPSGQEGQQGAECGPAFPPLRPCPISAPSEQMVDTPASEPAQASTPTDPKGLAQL
T1 sequence (P56373 1-397): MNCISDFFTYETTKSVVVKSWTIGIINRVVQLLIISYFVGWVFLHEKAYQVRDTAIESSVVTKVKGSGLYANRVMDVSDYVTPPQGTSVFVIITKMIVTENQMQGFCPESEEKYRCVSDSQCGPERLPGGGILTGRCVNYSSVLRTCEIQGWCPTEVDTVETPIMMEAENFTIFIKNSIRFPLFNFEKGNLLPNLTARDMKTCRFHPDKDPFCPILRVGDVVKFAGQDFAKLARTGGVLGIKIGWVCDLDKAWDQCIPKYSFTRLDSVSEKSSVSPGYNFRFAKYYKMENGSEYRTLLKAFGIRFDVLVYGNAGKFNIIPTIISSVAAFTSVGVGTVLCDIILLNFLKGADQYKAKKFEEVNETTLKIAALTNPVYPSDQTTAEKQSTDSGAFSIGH
Procedure, shortened: (§1)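 Stably or transiently transfected HEK293 or 1321N1 cells; the heteromer is made by adding P2X3 to a P2X2-stable line, with heteromer function isolated pharmacologically. The peak-minus-baseline FLIPR calcium signal gives % inhibition and a 4-parameter-logistic IC50.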

hP2X3 = target: T2, hP2X3 (Homo sapiens, UniProt P56373); experiment: Calcium uptake assay (P2X antagonist assay), P2X3 homomer; format: cell-based; settings: hP2X3
T2 construct: expressed in transfected cells; host or cells: e.g. HEK293 or 1321N1
T2 sequence (P56373 1-397): T1 sequence (P56373 1-397)
Procedure, shortened: as §1

[1] = calcium uptake assay, read-out: IC50 hP2X2/3H (nM), Ca Influx
[2] = calcium uptake assay, read-out: IC50 hP2X3 (nM), Ca Influx
[3] = Ca influx (calcium uptake assay), read-out: IC50 hP2X2/3H
[4] = Ca influx (calcium uptake assay), read-out: IC50 hP2X3

| IC50 (hP2X2/3H; [1]) | IC50 (hP2X3; [2]) | IC50 (hP2X2/3H; [3]) | IC50 (hP2X3; [4]) | Structure (SMILES) |
| --- | --- | --- | --- | --- |
| 100 to 500 nM | 501 to 1000 nM |  |  | Cc1ccc(-c2cc(C(=O)NCc3ccc(C)nc3)cc(C(=O)N3CC[C@@H](NC(=O)OC(C)(C)C)C3)c2)cc1 [Compound 100] |
|  |  | 100 to 500 nM | < 100 nM | Cc1ccc(-c2cc(OCC3COCCO3)cc(C(=O)N[C@H](C)c3ccc(C)nc3)c2)cc1 (stereo partly drawn) [Compound 326] |
|  |  | < 100 nM | < 100 nM | Cc1ccc(-c2cc(C(=O)N[C@H](C)c3ccc(C)nc3)cc(C(O)CO)c2)cc1 (stereo partly drawn) [Compound 289] |
|  |  | 100 to 500 nM | < 100 nM | COc1cc(C(=O)N[C@H](C)c2cnc(C)nc2)cc(-c2ccc(C)cn2)c1 [Compound 225, (R)-3-Methoxy-5-(5-methylpyridin-2-yl)-N-(1-(2-methylpyrimidin-5-yl)ethyl)benzamide] |
| > 1000 nM | > 1000 nM |  |  | Cc1ccc(CNC(=O)c2cc(-c3ccc(C)c(Cl)c3)cc(S(C)(=O)=O)c2)cn1 [Compound 120] |
|  |  | 100 to 500 nM | < 100 nM | Cc1ccc(-c2cc(C(=O)NC(C)c3ccc(Cl)c(S(C)(=O)=O)c3)cc(S(C)(=O)=O)c2)nc1 (stereo not drawn) [Compound 371] |
|  |  | < 100 nM | < 100 nM | Cc1ccc(-c2cc(C(=O)NCc3ccc(C)nc3)cc(C(O)c3ccccn3)c2)cc1 (stereo not drawn) [Compound 240, 5-(Hydroxy(pyridin-2-yl)methyl)-4′-methyl-N-((6-methylpyridin-3-yl)methyl)biphenyl-3-carboxamide] |
| > 1000 nM | < 100 nM |  |  | CCCS(=O)(=O)c1cc(C(=O)N[C@@H](C)CO)cc(-c2ccc(C)cc2)c1 [Compound 42] |
|  |  | > 1000 nM | < 100 nM | Cc1ccc(-c2cc(C(=O)N[C@@H](C)CO)cc(S(=O)(=O)C(C)C)c2)cc1 [Compound 288] |
|  |  | < 100 nM | < 100 nM | Cc1ccc(-c2cc(C(=O)N[C@H](C)c3cnc(C)nc3)cc(C(O)C(F)(F)F)c2)c(C#N)c1 (stereo partly drawn) [Compound 353] |
| < 100 nM | < 100 nM |  |  | Cc1ccc(-c2cc(C(=O)NCc3cnc(C)nc3)cc(C(=O)N3CC(F)(F)C3)c2)cc1 [Compound 17, 5-(3,3-Difluoroazetidine-1-carbonyl)-4′-methyl-N-((2-methylpyrimidin-5-yl)methyl)biphenyl-3-carboxamide] |
|  |  | < 100 nM | < 100 nM | Cc1ccc(-c2cc(OCC(O)CO)cc(C(=O)N[C@H](C)c3ccc(C)nc3)c2)cc1 (stereo partly drawn) [Compound 318] |
| < 100 nM | < 100 nM |  |  | Cc1ccc(-c2cc(C(=O)N[C@H](C)c3cnc(C)nc3)cc(C(=O)N3CC[C@@H](O)C3)c2)cc1 [Compound 157] |
| < 100 nM | < 100 nM |  |  | Cc1ccc(-c2cc(C(=O)NC(C)c3ccc(Cl)c(S(C)(=O)=O)c3)cc(S(C)(=O)=O)c2)cc1 (stereo not drawn) [Compound 26] |
| < 100 nM | < 100 nM |  |  | Cc1ccc(-c2cc(C(=O)NCc3ccc(C)nc3)cc(C(=O)N3[C@H](C)CC[C@H]3C)c2)cc1 [Compound 195] |
|  |  | 501 to 1000 nM | < 100 nM | Cc1ccc(-c2cc(C(=O)NCc3ccc(C)nc3)cc(C(O)CN3CCN(C)CC3)c2)cc1 (stereo not drawn) [Compound 366] |
|  |  | < 100 nM | < 100 nM | Cc1ccc(-c2cc(C(=O)N[C@H](C)c3cnc(C)nc3)cc(C(O)c3nccs3)c2)cc1 (stereo partly drawn) [Compound 283] |
|  |  | 100 to 500 nM | < 100 nM | Cc1ccc(-c2cc(OC3CNCC3O)cc(C(=O)N[C@H](C)c3ccc(C)nc3)c2)c(C#N)c1 (stereo partly drawn) [Compound 338, 2′-Cyano-5-(4-hydroxypyrrolidin-3-yloxy)-4′-methyl-N—((R)-1-(6-methylpyridin-3-yl)ethyl)biphenyl-3-carboxamide] |
|  |  | < 100 nM | < 100 nM | Cc1ccc(-c2cc(C(=O)N[C@H](C)c3cnc(C)nc3)cc(C(O)c3cncn3C)c2)cc1 (stereo partly drawn) [Compound 354] |
| < 100 nM | < 100 nM |  |  | Cc1ccc(-c2cc(C(=O)N[C@H](C)c3ccc(C)nc3)cc(C(=O)N3CCCC3)c2)cc1 [Compound 176] |
| > 1000 nM | 100 to 500 nM |  |  | Cc1ncc(CNC(=O)c2cc(C(=O)N3CCCC3)cc(-c3ccc(F)cc3)c2)cn1 [Compound 38] |

| IC50 (hP2X2/3H; [1]) | IC50 (hP2X3; [2]) | IC50 (hP2X2/3H; [3]) | IC50 (hP2X3; [4]) | Structure (SMILES) |
| --- | --- | --- | --- | --- |
|  |  | 501 to 1000 nM | 100 to 500 nM | Cc1ccc(-c2cc(Oc3ncccn3)cc(C(=O)N[C@H](C)c3cnc(C)nc3)c2)nc1 [Compound 273] |
|  |  | < 100 nM | < 100 nM | Cc1ccc(-c2cc(Oc3nccs3)cc(C(=O)N[C@H](C)c3ccc(C)nc3)c2)c(C#N)c1 [Compound 255] |
| < 100 nM | < 100 nM |  |  | Cc1ccc(-c2cc(C(=O)NCc3cnc(C)nc3)cc(C(=O)N3CCC(F)(F)C3)c2)cc1 [Compound 34, 5-(3,3-Difluoropyrrolidine-1-carbonyl)-4′-methyl-N-((2-methylpyrimidin-5-yl)methyl)biphenyl-3-carboxamide] |
|  |  | 100 to 500 nM | < 100 nM | Cc1ccc(-c2cc(OC3COCC3O)cc(C(=O)N[C@H](C)c3ccc(C)nc3)c2)nc1 (stereo partly drawn) [Compound 347] |
|  |  | 100 to 500 nM | < 100 nM | Cc1ccc(-c2cc(C(=O)N[C@H](C)c3cnc(C)nc3)cc(C(O)CO)c2)nc1 (stereo partly drawn) [Compound 356] |
|  |  | < 100 nM | < 100 nM | Cc1ccc(-c2cc(Oc3nccs3)cc(C(=O)N[C@H](C)c3cnc(C)nc3)c2)nc1 [Compound 269, (R)-3-(5-Methylpyridin-2-yl)-N-(1-(2-methylpyrimidin-5-yl)ethyl)-5-(thiazol-2-yloxy)benzamide] |
|  |  | < 100 nM | < 100 nM | Cc1ccc(-c2cc(Oc3nc(C)cs3)cc(C(=O)N[C@H](C)c3ccc(C)nc3)c2)c(C#N)c1 [Compound 373] |
| > 1000 nM | > 1000 nM |  |  | Cc1ccc(CNC(=O)c2cc(-c3ccc(Cl)c(C(F)(F)F)c3)cc(S(C)(=O)=O)c2)cn1 [Compound 139] |
|  |  | < 100 nM | < 100 nM | COCCOc1cc(C(=O)N[C@H](C)c2cnc(C)nc2)cc(-c2ccc(C)cc2)c1 [Compound 251] |
|  |  | 100 to 500 nM | < 100 nM | Cc1ccc(-c2cc(CO)cc(C(=O)NCc3ccc(C)nc3)c2)c(C#N)c1 [Compound 306] |
| < 100 nM | < 100 nM |  |  | Cc1ccc(-c2cc(C(=O)NCc3ccc(C)nc3)cc(C(=O)N3CCCC3)c2)nc1 [Compound 122, 3-(5-Methylpyridin-2-yl)-N-((6-methylpyridin-3-yl)methyl)-5-(pyrrolidine-1-carbonyl)benzamide] |
| < 100 nM | < 100 nM |  |  | COc1ncc([C@@H](C)NC(=O)c2cc(C(=O)N3CCC3)cc(-c3ccc(C)cc3)c2)cn1 [Compound 77] |
|  |  | 100 to 500 nM | < 100 nM | Cc1ccc(-c2cc(C(=O)N[C@H](CCO)c3ccc(C(F)(F)F)nc3)cc(S(C)(=O)=O)c2)cc1 [Compound 223] |
|  |  | 100 to 500 nM | < 100 nM | Cc1ccc(-c2cc(OCC3CNCCO3)cc(C(=O)N[C@H](C)c3ccc(C)nc3)c2)c(C#N)c1 (stereo partly drawn) [Compound 324, 2′-Cyano-4′-methyl-N—((R)-1-(6-methylpyridin-3-yl)ethyl)-5-(morpholin-2-ylmethoxy)biphenyl-3-carboxamide] |
| > 1000 nM | 100 to 500 nM |  |  | Cc1ccc(-c2cc(C(=O)NCc3ccc(C)nc3)cc(C(=O)N(C)C3CCNCC3)c2)cc1 [Compound 167] |
|  |  | 100 to 500 nM | < 100 nM | Cc1ccc(-c2cc(C(=O)N[C@H](C)c3cnc(C)nc3)cc(C(O)CO)c2)cc1 (stereo partly drawn) [Compound 361] |
| < 100 nM | < 100 nM |  |  | Cc1ccc(-c2cc(C(=O)NCc3ccc(C)nc3)cc(C(=O)N3CCN4CCCC4C3)c2)cc1 (stereo not drawn) [Compound 128] |
| 100 to 500 nM | 100 to 500 nM |  |  | Cc1ccc(-c2cc(C(=O)N[C@H](C)c3ccc(C(F)(F)F)nc3)cc(C(=O)N(C)CC(C)C)c2)cc1 [Compound 10, (R)—N3-Isobutyl-N3,4′-dimethyl-N5-(1-(6-(trifluoromethyl)pyridin-3-yl)ethyl)biphenyl-3,5-dicarboxamide] |
|  |  | < 100 nM | < 100 nM | Cc1ccc(-c2cc(OC(C)CO)cc(C(=O)N[C@H](C)c3ccc(C)nc3)c2)c(C#N)c1 (stereo partly drawn) [Compound 377] |
| 100 to 500 nM | 100 to 500 nM |  |  | Cc1ccc(-c2cc(C(=O)NCc3ccc(C)nc3)cc(C(=O)N3CCCc4ccccc43)c2)cc1 [Compound 188] |
| 501 to 1000 nM | 100 to 500 nM |  |  | Cc1ccc(-c2cc(C(=O)NCc3ccc(C)nc3)cc(C(=O)N(C)[C@@H]3CCNC3)c2)cc1 [Compound 165, (R)—N3,4′-Dimethyl-N5-((6-methylpyridin-3-yl)methyl)-N3-(pyrrolidin-3-yl)biphenyl-3,5-dicarboxamide] |
